We go through two compounds from publication PMC6667281 (Biochemistry, 2019).

Assay [1] has as its target T1, CymD (Salinispora arenicola, UniProt A8M6W6). Briefly: prenyl donor in coupled pyrophosphate-release assay with purified CymD. The format is biochemical.
The target in assay [2] is T1, CymD. As to the kind of experiment: ITC. The format is binding.

T1 sequence (A8M6W6 2-373): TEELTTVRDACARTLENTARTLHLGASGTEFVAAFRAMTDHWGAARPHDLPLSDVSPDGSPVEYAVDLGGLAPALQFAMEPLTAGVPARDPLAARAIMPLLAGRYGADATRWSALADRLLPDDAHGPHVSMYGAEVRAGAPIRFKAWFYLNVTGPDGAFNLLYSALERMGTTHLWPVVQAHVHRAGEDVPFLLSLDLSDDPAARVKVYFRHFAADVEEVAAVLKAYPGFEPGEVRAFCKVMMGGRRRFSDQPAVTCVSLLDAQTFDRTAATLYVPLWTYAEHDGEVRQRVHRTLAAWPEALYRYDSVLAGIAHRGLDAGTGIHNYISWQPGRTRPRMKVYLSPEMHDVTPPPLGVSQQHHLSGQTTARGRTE

In the case of `CC(C)=CCOP(=O)(O)OP(=O)(O)O` [DMAPP], the “prenyl donor in coupled pyrophosphate-release assay with purified CymD” value in assay [1] is “Specific activities of CymD with DMAPP and various prenyl acceptor substrates”.

The term Kd denotes the equilibrium constant for the complex coming apart. Low values mean higher affinity, high ones lower affinity. Take `N[C@@H](Cc1c[nH]c2ccccc12)C(=O)O` [L-Trp]: the Kd in assay [2] is 4.4 ± 0.4 µM.
